# Measured values published in US20240082398A1, “METHODS OF PREPARING AND EXPANDING TYPE I INNATE LYMPHOID CELLS AND THERAPEUTIC USES THEREOF” (City of Hope, priority 2021, published 2024).
# “Also recorded” adds a separate entry of the source.
# How the values were obtained:
# mouse LSCs = assay: RNA-seq of LSCs after ILC1 co-culture or IFN-γ treatment; type: cell-based; conditions: vs untreated LSCs
# Experimental: For mouse ILC1 RNA-sequencing, mouse ILC1s were sorted from the liver of normal mice or mice with AML using BD FACSAria™ Fusion. […] Total RNA was isolated from ILC1s or LSCs using a miRNeasy mini kit (QIAGEN). PolyA RNA-seq was performed in the Integrative Genomics Core of City of Hope National Medical Center. SMART-Seq® Ultra Low Input RNA Kit for Sequencing-v4 (Takara Bio) was used for getting double-strand cDNA from each sample with 2 ng of input total RNA. The resulting cDNA was sheared using a Covaris LE220 sonicator. The sheared DNA was used for to prepare a sequencing library, using a KAPA HyperPrep Kit. The final libraries were quantified using the Qubit Assay Kit (Thermo Fisher Scientific) and Bioanalyzer (Agilent). Sequencing was performed using the single-read mode of 51 cycles of read1 and 7 cycles of index read with V4 reagents on a Hiseq 2500 system (Illumina). Real-time analysis (RTA) 2.2.38 software was used to process the image analysis and base calling.
# 2,000 mouse LSCs were co-cultured with 1,000 ILC1s or treated with 1 ng/ml IFN-γ for 3 days, and then the LSCs were sorted using BD FACSAria Fusion. Total RNA of LSCs were isolated using miRNeasy mini kit (QIAGEN). SMART-Seq® Ultra Low Input RNA Kit for Sequencing-v4 was used for generating amplified double strand cDNA from each sample with 2 ng of input total RNA according to the manufacturer's protocol. The resulting double-stranded cDNA sheared with Covaris LE220 with the setting of DNA fragment size of 200 bp peak. The sheared DNA was used for sequencing library preparation by using KAPA HyperPrep Kits. The final libraries were quantified with qubit and bioanalyzer. The sequencing was performed with the single read mode of 51 cycles of read1 and 7 cycles of index read with V4 reagents on Hiseq2500. Real-time analysis (RTA) 2.2.38 software was used to process the image analysis and base calling.
# Prism software v.8 (GraphPad, CA, USA) was used to perform statistical analysis. Two group comparisons were performed with a two-tailed Student's t-test; multiple group comparisons were performed with a one-way ANOVA test with a multiple comparisons option. For Kaplan-Meier survival curve analysis, the comparisons were performed using a log-rank (Mantel-Cox) test. For continuous endpoints, Student's t test was used to compare two independent conditions, and one-way ANOVA models were used to compare three or more independent conditions. For repeated measures over time, linear mixed models were used to account for the variance and covariance structure. Mouse survival was estimated by the Kaplan-Meier method and compared by log-rank tests. All tests were two-sided. P values were adjusted for multiple comparisons by Holm's procedure. For RNA-seq analysis, sequencing reads were trimmed from sequencing adapters using Trimmomatic^74 and polyA tails using FASTPT^75, and then mapped back to the mouse genome (mm10) using STAR (v. 020201)^76. The gene-level count table was created by HTSeq (v.0.6.0)^77 and normalized by the TMM^78 method. General linear models based on negative binomial distributions (R package “EdgeR”) were used to compare gene expression levels between two specific cell types. […] Pathway and gene set enrichment analyses were performed using the GSEA^79,80 program, which runs the GSEAPreranked algorithm on a ranked list of genes. Data are presented as mean±SD. Prism software v.8 (GraphPad, CA, USA) and SAS v.9.4 (SAS Institute. NC, USA) were used to perform statistical analyses. The p-values are represented as: *<0.05, **<0.01, ***<0.001, and ****<0.0001
# [1] = system: mouse LSCs (Lin^−Sca-1^+c-Kit^+); assay: LSCs and ILC1s in vitro co-culture assay (LSC apoptosis), mouse; type: cell-based; conditions: recombinant murine cytokine instead of ILC1s, indicated doses, 3-4 days
# Experimental: A total of 2,000 LSCs from AML patients labeled with CTV were co-cultured with different numbers of human ILC1s supplemented with human IL-12 (10 ng/ml) and IL-15 (100 ng/ml). After 3 days of co-culture, cells were harvested and analyzed by flow cytometry. 7-AAD was used to identify dead cells. For mouse LSCs co-culture assay, 2,000 LSCs from Mll^PTD/WT/Flt3^ITD/ITD mice labeled with CTV were co-cultured with different numbers of mouse ILC1s supplemented with mouse IL-12 (10 ng/ml) and IL-15 (100 ng/ml). After 3 days of co-culture, cells were harvested and analyzed by flow cytometry. 7-AAD was used to identify the dead cells. For the co-culture of LSCs and ILC1s using the transwell co-culture system, 2,000 human or mouse LSCs were seeded in the lower chamber while different numbers of human or mouse ILC1s were seeded in the upper chamber. After 3 days, cells were harvested and analyzed by flow cytometry. 7-AAD was used to identify the dead cells. For co-culture assay with cytokines and antibodies, 2,000 human or mouse LSCs were co-cultured with different doses of human or mouse TNF-α, IFN-γ, anti-TNF-α (10 μg/ml) Ab, or anti-IFN-γ Ab (10 μg/ml). Three days after the co-culture, cells were harvested and analyzed by flow cytometry. 7-AAD was used to identify the dead cells.
# For human LSC co-culture assays, LSCs from patients with AML were labeled with […] CTV and co-cultured in the presence of human IL-12 (10 ng/ml) and IL-15 (100 ng/ml) with various numbers of ILC1s isolated from peripheral blood of healthy donors or patients with AML. […] For all co-culture assays, cells were harvested after 3 days and analyzed using flow cytometry. […]
# ILC1s were co-cultured with LSCs at a ratio of 1:1 or 1:2 for 6 h. […] Plates were then shaken at 300 rpm for 1 min, incubated for 60 min at room temperature, and then read on a luminometer (Promega, Glomax). Background luminescence was determined with 100 μl of culture medium without cells and subtracted before fold changes were calculated.
# [2] = system: LS^−K^+ leukemia progenitor cells; assay: Differentiation of sorted leukemia progenitor cells into myeloid blasts; type: cell-based, mouse; conditions: treated 5 days, among the groups
# Experimental: The process of LSC differentiation into AML blasts includes transitions from LSCs to LS^−K^+ leukemia progenitor cells, and from LS^−K^+ leukemia progenitor cells to AML blasts. To investigate which part of the process was affected by ILC1 and IFN-γ, LS^−K^+ leukemia progenitor cells were sorted from Mll^PTD/WT/Flt3^ITD/ITD AML mice, then the LS^−K^+ leukemia progenitor cells were treated with WT ILC1, ILC1s, or recombinant IFN-γ for 5 days. […] Thus, ILC1s block LSC differentiation into AML blasts, likely via a process involving by IFN-γ, during the transition from LSCs into LS^−K^+ leukemia progenitor cells, upstream of progenitor cell differentiation into AML blasts (FIG. 9D).
# LSCs transition into LS^−K^+ leukemia progenitor cells before becoming AML blasts.
substance,measurement,setting,value
recombinant murine IFN-γ: animal-free recombinant murine IFN-γ cytokine,"E2F targets, G2M checkpoints, MYC targets and mitotic spindle pathways in LSCs (GSEA)",mouse LSCs,significant suppression; also recorded: significantly suppressing
same,JAK-STAT and PI3K-AKT signaling pathways in LSCs,mouse LSCs,activation of the JAK-STAT and PI3K-AKT signaling pathways
same,apoptotic pathways in LSCs (GSEA),mouse LSCs,activated apoptotic pathways
same,"expression of Akt3, Jak2, Stat1/2, Irf1/2/7/8/9 and Socs1 in LSCs",mouse LSCs,increased expression
same,"expression of genes associated with lymphoid differentiation (Gimap4, Gpb4, Irf8, Irf1)",mouse LSCs,increased expression
same,"expression of genes associated with myeloid differentiation (S100a8/S100a9, Chil3, Serpinb1a, Slc28a2)",mouse LSCs,reduced their expression
same,LSC apoptosis on treatment with recombinant cytokine,[1],We observed LSC apoptosis with IFN-γ
same,LSC apoptosis on treatment with recombinant cytokine,[1]; listed as IFN-γ,induces apoptosis of LSCs
same,LSC apoptosis on treatment with recombinant cytokine,[1]; listed as Recombinant murine IFN-γ,induced LSC apoptosis
same,percentage of Mac-1^+ and Gr-1^+ cells from LS^−K^+ leukemia progenitor cells,[2],do not affect the differentiation of leukemia progenitor cells into myeloid blasts
same,percentage of Mac-1^+ and Gr-1^+ cells from LS^−K^+ leukemia progenitor cells,[2]; listed as recombinant IFN-γ,no statistical difference; also recorded: remained constant
